Laboratory results taken from patent publication US20240158348A1, “HERBICIDAL CYCLIC AMIDES N-SUBSTITUTED WITH A HALOALKYLSULFONYLANILIDE GROUP” (FMC Corporation, priority 2021, published 2024).

What was measured:
Assay type in all cases: in vivo
[1] = system: ragweed (common ragweed, Ambrosia artemisiifolia); assay: Test A preemergence, ragweed; conditions: pre-emergence, 240 h, 0 to 100 scale, 10 days, read-out: Plant response rating, Ragweed; for pest or weed control at 31 g/ha: 31 g ai/ha; for pest or weed control at 125 g/ha: 125 g ai/ha
From the text: (§1) Seeds of plant species selected from barnyardgrass (Echinochloa crus-galli), blackgrass (Alopecurus myosuroides), corn (Zea mays), foxtail, giant (giant foxtail, Setaria faberi), goosegrass (Eleusine indica), kochia (Bassia scoparia), oat, wild (wild oat, Avena fatua), pigweed, palmer (palmer amaranth, Amaranthus palmeri), pigweed, redroot (redroot pigweed, Amaranthus retroflexus), ragweed (common ragweed, Ambrosia artemisiifolia), ryegrass, Italian (Italian ryegrass, Lolium multiflorum), soybean (Glycine max), and wheat (Triticum aestivum) were planted into a blend of loam soil and sand and treated preemergence with a directed soil spray using test chemicals formulated in a non-phytotoxic solvent mixture which included a surfactant.
(§2) At the same time, plants selected from these crop and weed species and also galium (catchweed bedstraw, Galium aparine) and horseweed (Erigeron canadensis) were planted in pots containing the same blend of loam soil and sand and treated with postemergence applications of test chemicals formulated in the same manner. Plants ranged in height from 2 to 10 cm and were in the one- to two-leaf stage for the postemergence treatment. Treated plants and untreated controls were maintained in a greenhouse for 10 days, after which time all treated plants were compared to untreated controls and visually evaluated for injury. Plant response ratings, summarized in Table A, are based on a 0 to 100 scale where 0 is no effect and 100 is complete control. A dash (-) response means no test result.

[2] = system: foxtail, giant (giant foxtail, Setaria faberi); assay: Test A postemergence, giant foxtail; conditions: post-emergence, 240 h, 0 to 100 scale, 10 days, read-out: Plant response rating, Foxtail, Giant; for pest or weed control at 31 g/ha: 31 g ai/ha; for pest or weed control at 125 g/ha: 125 g ai/ha
From the text: as §1, §2

[3] = system: ragweed (common ragweed, Ambrosia artemisiifolia); assay: Test A postemergence, ragweed; conditions: post-emergence, 240 h, 0 to 100 scale, 10 days, read-out: Plant response rating, Ragweed; for pest or weed control at 31 g/ha: 31 g ai/ha; for pest or weed control at 125 g/ha: 125 g ai/ha
From the text: as §1, §2

[4] = system: barnyardgrass (Echinochloa crusgalli); assay: Test B flooded paddy test, barnyardgrass; conditions: Echinochloa crus-galli; 250 g ai/ha, Flood; scale of 0 to 100 where 0 is no effect and 100 is complete control; visually evaluated after 10 to 14 days; read-out: Plant response rating, Barnyardgrass
Description: Plant species in the flooded paddy test selected from barnyardgrass (Echinochloa crusgalli), ducksalad (Heteranthera limosa), rice (Oryza sativa), and sedge, umbrella (small-flower umbrella sedge, Cyperus difformis) were grown to the 2-leaf stage for testing. At time of treatment, test pots were flooded to 3 cm above the soil surface, treated by application of test compounds directly to the paddy water, and then maintained at that water depth for the duration of the test. Treated plants and controls were maintained in a greenhouse for 10 to 14 days, after which time all species were compared to controls and visually evaluated. Plant response ratings, summarized in Table B, are based on a scale of 0 to 100 where 0 is no effect and 100 is complete control. A dash (-) response means no test result.

corn (Zea mays) = assay: Test A preemergence, corn; conditions: 0 to 100 scale, 10 days
From the text: as §1, §2

[5] = system: oat, wild (wild oat, Avena fatua); assay: Test A preemergence, wild oat; conditions: 0 to 100 scale, 10 days
From the text: as §1, §2

[6] = system: pigweed, palmer (palmer amaranth, Amaranthus palmeri); assay: Test A preemergence, palmer amaranth; conditions: 0 to 100 scale, 10 days
From the text: as §1, §2

soybean (Glycine max) = assay: Test A preemergence, soybean; conditions: 0 to 100 scale, 10 days
From the text: as §1, §2

[7] = system: oat, wild (wild oat, Avena fatua); assay: Test A postemergence, wild oat; conditions: 0 to 100 scale, 10 days
From the text: as §1, §2

[8] = system: pigweed, palmer (palmer amaranth, Amaranthus palmeri); assay: Test A postemergence, palmer amaranth; conditions: 0 to 100 scale, 10 days
From the text: as §1, §2

SMILES | pest or weed control at 31 g/ha [1] [%] | pest or weed control at 125 g/ha [1] [%] | pest or weed control at 31 g/ha [2] [%] | pest or weed control at 125 g/ha [2] [%] | pest or weed control at 31 g/ha [3] [%] | pest or weed control at 125 g/ha [3] [%] | pest or weed control at 250 g/ha [4] [%] | Plant response rating, Corn (corn (Zea mays); 31 g ai/ha) | Plant response rating, Corn (corn (Zea mays); 125 g ai/ha) | Plant response rating, Oat, Wild ([5]; 31 g ai/ha) | Plant response rating, Oat, Wild ([5]; 125 g ai/ha) | Plant response rating, Pigweed, Palmer ([6]; 31 g ai/ha) | Plant response rating, Pigweed, Palmer ([6]; 125 g ai/ha) | Plant response rating, Soybean (soybean (Glycine max); 31 g ai/ha) | Plant response rating, Soybean (soybean (Glycine max); 125 g ai/ha) | Plant response rating, Oat, Wild ([7]; 31 g ai/ha) | Plant response rating, Oat, Wild ([7]; 125 g ai/ha) | Plant response rating, Pigweed, Palmer ([8]; 31 g ai/ha) | Plant response rating, Pigweed, Palmer ([8]; 125 g ai/ha)
C#CCOC1CCN(c2cc(NS(=O)(=O)C(F)(F)F)c(C)cc2C)C1=O (stereo not shown) [Compound 1, N-[2,4-dimethyl-5-[2-oxo-3-(2-propyn-1-yloxy)-1-pyrrolidinyl]phenyl]-1,1,1-trifluoromethanesulfonamide] | 30 | 90 | 40 | 60 | 60 | 80 | 60 |  |  |  |  |  |  |  |  |  |  |  | 
C=CCOC1CCN(c2cc(NS(=O)(=O)C(F)(F)F)c(C)cc2C)C1=O (stereo not shown) [Compound 2, N-[2,4-dimethyl-5-[2-oxo-3-(2-propen-1-yloxy)-1-pyrrolidinyl]phenyl]-1,1,1-trifluoromethanesulfonamide] | 20 | 80 | 30 | 50 | 50 | 70 | 40 |  |  |  |  |  |  |  |  |  |  |  | 
Cc1cc(C)c(N2CCC(OC3CC3)C2=O)cc1NS(=O)(=O)C(F)(F)F (stereo not shown) [Compound 3, N-[5-[3-(cyclopropyloxy)-2-oxo-1-pyrrolidinyl]-2,4-dimethylphenyl]-1,1,1-trifluoromethanesulfonamide] | 90 | 100 | 70 | 90 | 80 | 90 | 90 | 90 | 90 | 70 | 100 | 100 | 100 | 30 | 80 | 40 | 80 | 40 | 60
Cc1cc(C)c(N2CCC(OC3CCC3)C2=O)cc1NS(=O)(=O)C(F)(F)F (stereo not shown) [Compound 4, N-[5-[3-(cyclobutyloxy)-2-oxo-1-pyrrolidinyl]-2,4-dimethylphenyl]-1,1,1-trifluoromethanesulfonamide] | 90 | 100 | 40 | 80 | 70 | 90 | 45 | 40 | 90 | 80 | 100 | 100 | 100 | 70 | 100 | 30 | 60 | 60 | 90
Cc1cc(C)c(N(COC(=O)C(C)(C)C)S(=O)(=O)C(F)(F)F)cc1N1CCC(OC2CCCC2)C1=O (stereo not shown) [Compound 5, [[5-[3-(cyclopentyloxy)-2-oxo-1-pyrrolidinyl]-2,4-dimethylphenyl][(trifluoromethyl)sulfonyl]amino]methyl 2,2-dimethylpropanoate] | 0 | 40 | 0 | 80 | 60 | 80 | 95 | 0 | 20 | 0 | 40 | 10 | 50 | 0 | 20 | 20 | 30 | 20 | 70
Cc1cc(C)c(N2CCC(OC3CCCC3)C2=O)cc1NS(=O)(=O)C(F)(F)F (stereo not shown) [Compound 6, N-[5-[3-(cyclopentyloxy)-2-oxo-1-pyrrolidinyl]-2,4-dimethylphenyl]-1,1,1-trifluoromethanesulfonamide] | 30 | 90 | 10 | 60 | 60 | 90 | 30 | 30 | 80 | 70 | 90 | 70 | 100 | 50 | 90 | 0 | 20 | 50 | 60
Cc1cc(C)c(N(COC(=O)C(C)(C)C)S(=O)(=O)C(F)(F)F)cc1N1CCC(OC2CC2)C1=O (stereo not shown) [Compound 7, [[5-[3-(cyclopropyloxy)-2-oxo-1-pyrrolidinyl]-2,4-dimethylphenyl][(trifluoromethyl)sulfonyl]amino]methyl 2,2-dimethylpropanoate] | 30 | 90 | 60 | 90 | 90 | 90 | 98 | 0 | 50 | 20 | 100 | 50 | 100 | 20 | 40 | 30 | 70 | 30 | 60
